# Data taken from patent US20120172292A1, “METHOD FOR PROTECTION OF ANTIMICROBIAL AND ANTICANCER DRUGS FROM INACTIVATION BY NITRIC OXIDE” (NEW YORK UNIVERSITY, priority 2009, published 2012).
# Several values for one entry are separate records, joined by “and”; a condition that tells them apart may be missing. Identical values can stand only once.
# Legend:
# B.subtilis [1] = type: cell-based
# Streptococcus = conditions: cited from earlier work
# Streptococcus C203 = conditions: cited from earlier work
# S. aureus = conditions: cited from earlier work
# B.subtilis [2] = experiment: Growth of B.subtilis with ACR or AO premixed with NO donor; type: cell-based
# B. subtilis = type: cell-based
# B.anthracis [3] = type: cell-based; conditions: CuFL 20 μM
# B.subtilis 6051 and Δnos = type: cell-based; conditions: 25 μg/ml cefuroxime
# S.aureus 4220 and Δnos = type: cell-based; conditions: 0.4 μg/ml CEF
# B.anthracis [4] = type: cell-based
structure (smiles),measurement,setting,value
COc1cc(NS(C)(=O)=O)ccc1Nc1c2ccccc2nc2ccccc12 [AMSAcrine],"cell survival, AMSAcrine preincubated with exogenous NO versus AMSAcrine alone","HepG2 human hepatocytes; 20 μM AMSAcrine, 100 μM MAHMA NONOate, viability 24 hours later",5.5 fold
c1ccc(-c2ccccn2)nc1 [bipyridyl],effect of pretreatment on toxicity of ACR,B.subtilis [1],substantially decreased the toxicity of ACR
Nc1c2ccccc2nc2cc([N+](=O)[O-])ccc12 [3-nitro-9-aminoacridine],MIC,Streptococcus,1.5 μM and ~0.4 μg/ml
"COC(=O)[C@@H](N)CCCNC(=N)N[N+](=O)[O-] [L-NAME, N G -nitro-L-arginine methyl ester]",sensitivity of hepatocytes to AMSAcrine after inhibition of cellular NOS,HepG2 human hepatocytes; 4 mM L-NAME 8 hours prior to 20 μM AMSAcrine,increased sensitization
"COc1cc2c(N)c3ccc([N+](=O)[O-])cc3[n+]([O-])c2cc1OC [9-Amino-2,3-dimethoxy-6-nitroacridine 10-oxides]",MIC,Streptococcus C203,20 nM and ~6 ng/ml
Cc1cc2cc3ccc(N(C)C)cc3[n+](C)c2cc1N.[Cl-] [Flavicid],MIC,S. aureus,10 μM and ~2.6 μg/ml
"CN(C)c1ccc2cc3ccc(N(C)C)cc3nc2c1 [AO, acridine orange]",effect of NO treatment on antibacterial activity,B.subtilis [2],unaffected by NO treatment
same,antibacterial effect compared with ACR,B.subtilis [2]; 10 μg/ml,significantly less than that of ACR
CO/N=C(\C(=O)N[C@@H]1C(=O)N2C(C(=O)O)=C(COC(N)=O)CS[C@H]12)c1ccco1 [cefuroxime],end products of NO oxidation (nitrite/nitrate) in growing culture after challenge,B. subtilis,increase
same,NO production after antibiotic challenge,B.anthracis [3],greatly stimulated NO production
same,killing of nos deficient versus wt cells,B.subtilis 6051 and Δnos,much more efficiently than wt cells
same,growth inhibition of nos-deficient versus wild type cells,S.aureus 4220 and Δnos,much greater extent
same,killing of nos deficient versus wt cells,B.anthracis [4],much more efficiently than wt cells
